Data as given in patent publication US20250304620A1, “ANTIMICROBIAL PEPTIDE AND APPLICATION THEREOF” (priority 2023, published 2025).
Values after ≈ are worked out from the molar mass of the structure shown. Marks after values point to notes of the source that are not given here. Non-standard residues stand in square brackets, D forms with d. Residues, ends and D or L forms follow the SMILES beside them.

What was measured:
[1] = system: Staphylococcus aureus (NRS 384); assay: microbe, parasite or virus in culture; assay type: cell-based; details: NRS 384
Summary of the method: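 CLSI broth microdilution with serial twofold dilutions gave MICs against S. aureus NRS 384, with 5 parallel replicates. Levofloxacin and the AMP Cbf-K16 served as positive controls.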

[2] = system: Bacillus subtilis ATCC 6633; assay type: cell-based
Summary of the method: (§1)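 Peptides were tested against clinical bacterial and fungal strains by CLSI microdilution using a serial twofold dilution series, and the MIC was taken as the value. Replicates: 5, run in parallel.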

[3] = system: Candida albicans ATCC MYA-2876; assay type: cell-based
Summary of the method: as §1

[4] = system: Candida glabrata ATCC 15126; assay type: cell-based
Summary of the method: as §1

[5] = system: Candida krusei ATCC 6258; assay type: cell-based
Summary of the method: as §1

[6] = system: Candida tropicalis ATCC 750; assay type: cell-based
Summary of the method: as §1

[7] = system: Candida utilis ATCC 9950; assay type: cell-based
Summary of the method: as §1

[8] = system: Corynebacterium ATCC 7715; assay type: cell-based
Summary of the method: as §1

[9] = system: Enterococcus ATCC 29212; assay type: cell-based
Summary of the method: as §1

[10] = system: Escherichia coli ATCC 25922; assay type: cell-based
Summary of the method: as §1

[11] = system: Klebsiella pneumoniae ATCC 700603; assay type: cell-based
Summary of the method: as §1

[12] = system: Pseudomonas aeruginosa ATCC 27853; assay type: cell-based
Summary of the method: as §1

[13] = system: Salmonella typhimurium ATCC 14028; assay type: cell-based
Summary of the method: as §1

[14] = system: Serratia marcescens ATCC 29021; assay type: cell-based
Summary of the method: as §1

[15] = system: Staphylococcus aureus ATCC 25923; assay type: cell-based
Summary of the method: as §1

[16] = system: Trichophyton ATCC MYA-4438; assay type: cell-based
Summary of the method: as §1

[17] = system: Staphylococcus aureus (NRS 384); details: NRS 384, 3 h
Description: Trypsin (250 U/mg, pH=8.0) and AMPs (LV-1 to LV-30) were mixed in a ratio of 1:10 (w/w) and added to a reaction buffer (0.2 M sodium phosphate, 1 mM CaCl2), pH 7.5), and then incubated at 37° C. for 3 h.

[18] = system: Pseudomonas aeruginosa ATCC 27853; assay: Injectable formulations on mice infected with peritonitis; assay type: in vivo, ICR mice; details: twice a day for 3 days; for Number of mice that died on each day after infection: day 1 / Number of mice that died on each day after infection: day 2 / Number of mice that died on each day after infection: day 3 / Number of mice that died on each day after infection: day 4 / Number of mice that died on each day after infection: day 5 / Average survival times (Days): n = 10; for Average survival times (Days): observed for 14 d
Summary of the method: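 ICR mice of both sexes (10 per group) infected intraperitoneally with 0.2 mL P. aeruginosa ATCC 27853 at 1×10^9 CFU/mL. Injectable formulations dosed by body weight via tail vein twice daily for 3 days; deaths and survival time recorded over 14 d.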

[19] = system: Escherichia coli ATCC 25922; assay: Oral formulations on mice with systemic bacterial infection; assay type: in vivo, ICR mice; details: three times a day for 7 days; for Number of mice that died on each day after infection: day 4 / Number of mice that died on each day after infection: day 5 / Number of mice that died on each day after infection: day 6 / Number of mice that died on each day after infection: day 7 / Number of mice that died on each day after infection: day 8 / Average survival times (Days): n = 10; for Average survival times (Days): observed for 14 d
Summary of the method: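 ICR mice of both sexes, 10 per group, infected i.p. with 0.2 mL E. coli ATCC 25922 at 1×10^7 CFU/mL. Compounds gavaged by body weight immediately after infection, three times daily for 7 days; deaths and survival time recorded over 14 d observation.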

Question: Which “MIC against Staphylococcus aureus (NRS 384)” value [1] does the source give for `CC(=O)N[C@H](CCCNC(=N)N)C(=O)N[C@H](CCCCN)C(=O)N[C@H](CC(C)C)C(=O)N[C@H](CC(C)C)C(=O)N[C@H](Cc1ccccc1)C(=O)N[C@H](CCCNC(=N)N)C(=O)N[C@H](CC(C)C)C(=O)N[C@H](CCCCN)C(=O)N[C@H](Cc1ccccc1)C(=O)N[C@H](CCCNC(=N)N)C(=O)N[C@H](CCCCN)C(N)=O` [LV-2] (Ac-[dR][dK][dL][dL][dF][dR][dL][dK][dF][dR][dK]-NH2) here?
Answer: The value was 1 µg/mL (≈ 0.647 µM).

Question: What about the “MIC Bacillus subtilis ATCC 6633” value [2] of the same compound?
Answer: The value was 2 µg/mL (≈ 1.29 µM).

Question: What about the “MIC Candida albicans ATCC MYA-2876” value [3] of the same compound?
Answer: The value was 16 µg/mL (≈ 10.3 µM).

Question: And the “MIC Candida glabrata ATCC 15126” value [4]?
Answer: Its value is 16 µg/mL (≈ 10.3 µM).

Question: And the “MIC Candida krusei ATCC 6258” value [5]?
Answer: Its value is 16 µg/mL (≈ 10.3 µM).

Question: And the “MIC Candida tropicalis ATCC 750” value [6]?
Answer: Its value is 16 µg/mL (≈ 10.3 µM).

Question: And the “MIC Candida utilis ATCC 9950” value [7]?
Answer: The value was 8 µg/mL (≈ 5.17 µM).

Question: What about the “MIC Corynebacterium ATCC 7715” value [8] of the same compound?
Answer: Its value is 4 µg/mL (≈ 2.59 µM).

Question: What about the “MIC Enterococcus ATCC 29212” value [9] of the same compound?
Answer: The value was 4 µg/mL (≈ 2.59 µM).

Question: What about the “MIC Escherichia coli ATCC 25922” value [10] of the same compound?
Answer: The value was 1 µg/mL (≈ 0.647 µM).

Question: What about the “MIC Klebsiella pneumoniae ATCC 700603” value [11] of the same compound?
Answer: The value was 4 µg/mL (≈ 2.59 µM).

Question: What about the “MIC Pseudomonas aeruginosa ATCC 27853” value [12] of the same compound?
Answer: Its value is 1 µg/mL (≈ 0.647 µM).

Question: What about the “MIC Salmonella typhimurium ATCC 14028” value [13] of the same compound?
Answer: Its value is 2 µg/mL (≈ 1.29 µM).

Question: And the “MIC Serratia marcescens ATCC 29021” value [14]?
Answer: Its value is 4 µg/mL (≈ 2.59 µM).

Question: And the “MIC Staphylococcus aureus ATCC 25923” value [15]?
Answer: The value was 2 µg/mL (≈ 1.29 µM).

Question: What about the “MIC Trichophyton ATCC MYA-4438” value [16] of the same compound?
Answer: Its value is 8 µg/mL (≈ 5.17 µM).

Question: And the “Trypsin MIC” value [17]?
Answer: Its value is 1 µg/mL.

Question: What about the “Number of mice that died on each day after infection: day 1” value (“Number of mice that died … day 1” below) ([18]; 0.2 mg/kg via tail vein) of the same compound?
Answer: Its value is 3 Mouse.

Question: What about the “Number of mice that died on each day after infection: day 2” value (from here on “Number of mice that died … day 2”) ([18]; 0.2 mg/kg via tail vein) of the same compound?
Answer: The value was 1 Mouse.

Question: And the “Number of mice that died on each day after infection: day 3” value (shortened to “Number of mice that died … day 3”) ([18]; 0.2 mg/kg via tail vein)?
Answer: The value was 1 Mouse.

Question: And the “Number of mice that died on each day after infection: day 4” value (“Number of mice that died … day 4” below) ([18]; 0.2 mg/kg via tail vein)?
Answer: The value was 0 Mouse.

Question: And the “Number of mice that died on each day after infection: day 5” value (from here on “Number of mice that died … day 5”) ([18]; 0.2 mg/kg via tail vein)?
Answer: Its value is 0 Mouse.

Question: And the “Average survival times (Days)” value ([18]; 0.2 mg/kg via tail vein)?
Answer: The value was 7.8** Days.

Question: And the “Number of mice that died … day 1” value ([18]; 1 mg/kg via tail vein)?
Answer: The value was 0 Mouse.

Question: And the “Number of mice that died … day 2” value ([18]; 1 mg/kg via tail vein)?
Answer: The value was 0 Mouse.

Question: And the “Number of mice that died … day 3” value ([18]; 1 mg/kg via tail vein)?
Answer: The value was 1 Mouse.

Question: And the “Number of mice that died … day 4” value ([18]; 1 mg/kg via tail vein)?
Answer: Its value is 0 Mouse.

Question: And the “Number of mice that died … day 5” value ([18]; 1 mg/kg via tail vein)?
Answer: The value was 1 Mouse.

Question: What about the “Average survival times (Days)” value ([18]; 1 mg/kg via tail vein) of the same compound?
Answer: Its value is 12.0**** Days.

Question: And the “Number of mice that died … day 1” value ([18]; 5 mg/kg via tail vein)?
Answer: Its value is 1 Mouse.

Question: And the “Number of mice that died … day 2” value ([18]; 5 mg/kg via tail vein)?
Answer: Its value is 0 Mouse.

Question: And the “Number of mice that died … day 3” value ([18]; 5 mg/kg via tail vein)?
Answer: The value was 1 Mouse.

Question: What about the “Number of mice that died … day 4” value ([18]; 5 mg/kg via tail vein) of the same compound?
Answer: Its value is 0 Mouse.

Question: And the “Number of mice that died … day 5” value ([18]; 5 mg/kg via tail vein)?
Answer: Its value is 0 Mouse.

Question: And the “Average survival times (Days)” value ([18]; 5 mg/kg via tail vein)?
Answer: The value was 11.6**** Days.

Question: What about the “survival time of mice infected with Pseudomonas aeruginosa” value ([18]; tail vein, observed 14 d) of the same compound?
Answer: The value was “superior to those of the Levofloxacin group”.

Question: And the “Number of mice that died … day 4” value ([19]; 0.2 mg/kg gavage)?
Answer: Its value is 1 Mouse.

Question: What about the “Number of mice that died … day 5” value ([19]; 0.2 mg/kg gavage) of the same compound?
Answer: Its value is 2 Mouse.

Question: What about the “Number of mice that died on each day after infection: day 6” value (shortened to “Number of mice that died … day 6”) ([19]; 0.2 mg/kg gavage) of the same compound?
Answer: Its value is 1 Mouse.

Question: And the “Number of mice that died on each day after infection: day 7” value (“Number of mice that died … day 7” below) ([19]; 0.2 mg/kg gavage)?
Answer: The value was 1 Mouse.

Question: And the “Number of mice that died on each day after infection: day 8” value (from here on “Number of mice that died … day 8”) ([19]; 0.2 mg/kg gavage)?
Answer: Its value is 1 Mouse.

Question: What about the “Average survival times (Days)” value ([19]; 0.2 mg/kg gavage) of the same compound?
Answer: The value was 9.1** Days.

Question: And the “Number of mice that died … day 4” value ([19]; 1 mg/kg gavage)?
Answer: The value was 0 Mouse.

Question: What about the “Number of mice that died … day 5” value ([19]; 1 mg/kg gavage) of the same compound?
Answer: Its value is 2 Mouse.

Question: And the “Number of mice that died … day 6” value ([19]; 1 mg/kg gavage)?
Answer: The value was 1 Mouse.

Question: And the “Number of mice that died … day 7” value ([19]; 1 mg/kg gavage)?
Answer: The value was 0 Mouse.

Question: And the “Number of mice that died … day 8” value ([19]; 1 mg/kg gavage)?
Answer: The value was 0 Mouse.

Question: What about the “Average survival times (Days)” value ([19]; 1 mg/kg gavage) of the same compound?
Answer: The value was 11.4**** Days.

Question: And the “Number of mice that died … day 4” value ([19]; 5 mg/kg gavage)?
Answer: The value was 0 Mouse.

Question: What about the “Number of mice that died … day 5” value ([19]; 5 mg/kg gavage) of the same compound?
Answer: The value was 3 Mouse.

Question: What about the “Number of mice that died … day 6” value ([19]; 5 mg/kg gavage) of the same compound?
Answer: The value was 1 Mouse.

Question: What about the “Number of mice that died … day 7” value ([19]; 5 mg/kg gavage) of the same compound?
Answer: Its value is 0 Mouse.

Question: And the “Number of mice that died … day 8” value ([19]; 5 mg/kg gavage)?
Answer: Its value is 0 Mouse.

Question: And the “Average survival times (Days)” value ([19]; 5 mg/kg gavage)?
Answer: The value was 10.5*** Days.

Question: And the “survival time of mice infected with Escherichia coli” value ([19]; gavage, observed 14 d)?
Answer: The value was “superior to those of the Levofloxacin group”.
